ChEMBL document CHEMBL1154382, “Preliminary SAR analysis of novel antiproliferative N(6),5'-bis-ureidoadenosine derivatives” (2009)

Key:
Assay type in all cases: functional
Conditions in all cases: values are per cent of control
U-251 = assay: Antiproliferative activity against human U251 cells at 10 uM assessed as cell growth inhibition relative to control
MCF7 = assay: Antiproliferative activity against human MCF7 cells at 10 uM assessed as cell growth inhibition relative to control
SK-MEL-2 = assay: Antiproliferative activity against human SK-MEL-2 cells at 10 uM assessed as cell growth inhibition relative to control
MOLT-4 = assay: Antiproliferative activity against human MOLT4 cells at 10 uM assessed as cell growth inhibition relative to control
HCC 2998 = assay: Antiproliferative activity against human HCC2998 cells at 10 uM assessed as cell growth inhibition relative to control
LOX IMVI = assay: Antiproliferative activity against human LOXIMVI cells at 10 uM assessed as cell growth inhibition relative to control
OVCAR-4 = assay: Antiproliferative activity against human OVCAR4 cells at 10 uM assessed as cell growth inhibition relative to control
T47D = assay: Antiproliferative activity against human T47D cells at 10 uM assessed as cell growth inhibition relative to control
HOP-62 = assay: Antiproliferative activity against human HOP62 cells at 10 uM assessed as cell growth inhibition relative to control
UACC-257 = assay: Antiproliferative activity against human UACC257 cells at 10 uM assessed as cell growth inhibition relative to control
CAKI-1 = assay: Antiproliferative activity against human Caki1 cells at 10 uM assessed as cell growth inhibition relative to control
MDA-MB-468 = assay: Antiproliferative activity against human MDA-MB-468 cells at 10 uM assessed as cell growth inhibition relative to control
DU-145 = assay: Antiproliferative activity against human DU145 cells at 10 uM assessed as cell growth inhibition relative to control
ACHN = assay: Antiproliferative activity against human ACHN cells at 10 uM assessed as cell growth inhibition relative to control
SNB-19 = assay: Antiproliferative activity against human SNB19 cells at 10 uM assessed as cell growth inhibition relative to control
SF-295 = assay: Antiproliferative activity against human SF295 cells at 10 uM assessed as cell growth inhibition relative to control
Malme-3M = assay: Antiproliferative activity against human MALME-3M cells at 10 uM assessed as cell growth inhibition relative to control
HT-29 = assay: Antiproliferative activity against human HT-29 cells at 10 uM assessed as cell growth inhibition relative to control
SN12C = assay: Antiproliferative activity against human SN12C cells at 10 uM assessed as cell growth inhibition relative to control
RXF 393 = assay: Antiproliferative activity against human RXF393 cells at 10 uM assessed as cell growth inhibition relative to control
OVCAR-3 = assay: Antiproliferative activity against human OVCAR-3 cells at 10 uM assessed as cell growth inhibition relative to control
SK-MEL-5 = assay: Antiproliferative activity against human SK-MEL-5 cells at 10 uM assessed as cell growth inhibition relative to control
SF-268 = assay: Antiproliferative activity against human SF268 cells at 10 uM assessed as cell growth inhibition relative to control
OVCAR-8 = assay: Antiproliferative activity against human OVCAR8 cells at 10 uM assessed as cell growth inhibition relative to control
HOP-92 = assay: Antiproliferative activity against human HOP92 cells at 10 uM assessed as cell growth inhibition relative to control
SNB-75 = assay: Antiproliferative activity against human SNB75 cells at 10 uM assessed as cell growth inhibition relative to control
COLO 205 = assay: Antiproliferative activity against human COLO205 cells at 10 uM assessed as cell growth inhibition relative to control
HL-60(TB) = assay: Antiproliferative activity against human HL-60(TB) cells at 10 uM assessed as cell growth inhibition relative to control
SK-MEL-28 = assay: Antiproliferative activity against human SK-MEL-28 cells at 10 uM assessed as cell growth inhibition relative to control
HCT-116 = assay: Antiproliferative activity against human HCT116 cells at 10 uM assessed as cell growth inhibition relative to control
[1] = Antiproliferative activity against human […] cells at 10 uM assessed as cell growth inhibition relative to control
SF-539 = assay: Antiproliferative activity against human SF539 cells at 10 uM assessed as cell growth inhibition relative to control
UO-31 = assay: Antiproliferative activity against human UO31 cells at 10 uM assessed as cell growth inhibition relative to control
KM12 = assay: Antiproliferative activity against human KM12 cells at 10 uM assessed as cell growth inhibition relative to control
786-0 = assay: Antiproliferative activity against human 786-0 cells at 10 uM assessed as cell growth inhibition relative to control
MDA-MB-231 = assay: Antiproliferative activity against human MDA-MB-231 cells at 10 uM assessed as cell growth inhibition relative to control
OVCAR-5 = assay: Antiproliferative activity against human OVCAR5 cells at 10 uM assessed as cell growth inhibition relative to control
UACC-62 = assay: Antiproliferative activity against human UACC62 cells at 10 uM assessed as cell growth inhibition relative to control
M14 = assay: Antiproliferative activity against human M14 cells at 10 uM assessed as cell growth inhibition relative to control
SK-OV-3 = assay: Antiproliferative activity against human SKOV3 cells at 10 uM assessed as cell growth inhibition relative to control
NCI-H460 = assay: Antiproliferative activity against human NCI-H460 cells at 10 uM assessed as cell growth inhibition relative to control
EKVX = assay: Antiproliferative activity against human EKVX cells at 10 uM assessed as cell growth inhibition relative to control
HCT-15 = assay: Antiproliferative activity against human HCT15 cells at 10 uM assessed as cell growth inhibition relative to control
NCI-H226 = assay: Antiproliferative activity against human NCI-H226 cells at 10 uM assessed as cell growth inhibition relative to control
CCRF-CEM = assay: Antiproliferative activity against human CCRF-CEM cells at 10 uM assessed as cell growth inhibition relative to control
[2] = Antiproliferative activity against human Hs 578T cells at 10 uM assessed as cell growth inhibition relative to control
PC-3 = assay: Antiproliferative activity against human PC3 cells at 10 uM assessed as cell growth inhibition relative to control
NCI-H322M = assay: Antiproliferative activity against human NCI-H322M cells at 10 uM assessed as cell growth inhibition relative to control
SW-620 = assay: Antiproliferative activity against human SW620 cells at 10 uM assessed as cell growth inhibition relative to control
IGROV-1 = assay: Antiproliferative activity against human IGROV1 cells at 10 uM assessed as cell growth inhibition relative to control
NCI-H522 = assay: Antiproliferative activity against human NCI-H522 cells at 10 uM assessed as cell growth inhibition relative to control
TK-10 = assay: Antiproliferative activity against human TK10 cells at 10 uM assessed as cell growth inhibition relative to control
K562 = assay: Antiproliferative activity against human K562 cells at 10 uM assessed as cell growth inhibition relative to control
A549 = assay: Antiproliferative activity against human A549 cells at 10 uM assessed as cell growth inhibition relative to control
NCI-H23 = assay: Antiproliferative activity against human NCI-H23 cells at 10 uM assessed as cell growth inhibition relative to control
BT-549 = assay: Antiproliferative activity against human BT549 cells at 10 uM assessed as cell growth inhibition relative to control

CNC(=O)NC[C@H]1O[C@@H](n2cnc3c(NC(=O)Nc4ccccc4)ncnc32)[C@H](O[Si](C)(C)C(C)(C)C)[C@@H]1O[Si](C)(C)C(C)(C)C
growth, % of control at 10 µM (U-251): 17%
growth, % of control at 10 µM (MCF7): 0%
growth, % of control at 10 µM (SK-MEL-2): 57%
growth, % of control at 10 µM (MOLT-4): 24%
growth, % of control at 10 µM (HCC 2998): -1%
growth, % of control at 10 µM (LOX IMVI): 13%
growth, % of control at 10 µM (OVCAR-4): 30%
growth, % of control at 10 µM (T47D): 14%
growth, % of control at 10 µM (HOP-62): 62%
growth, % of control at 10 µM (UACC-257): 43%
growth, % of control at 10 µM (CAKI-1): 60%
growth, % of control at 10 µM (MDA-MB-468): 36%
growth, % of control at 10 µM (DU-145): 52%
growth, % of control at 10 µM (ACHN): 21%
growth, % of control at 10 µM (SNB-19): 76%
growth, % of control at 10 µM (SF-295): 45%
growth, % of control at 10 µM (Malme-3M): 49%
growth, % of control at 10 µM (HT-29): -68%
growth, % of control at 10 µM (SN12C): -79%
growth, % of control at 10 µM (RXF 393): -37%
growth, % of control at 10 µM (OVCAR-3): -29%
growth, % of control at 10 µM (SK-MEL-5): 48%
growth, % of control at 10 µM (SF-268): 36%
growth, % of control at 10 µM (OVCAR-8): 33%
growth, % of control at 10 µM (HOP-92): -3%
growth, % of control at 10 µM (SNB-75): 46%
growth, % of control at 10 µM (COLO 205): -100%
growth, % of control at 10 µM (HL-60(TB)): 24%
growth, % of control at 10 µM (SK-MEL-28): 60%
growth, % of control at 10 µM (HCT-116): 0%
growth, % of control at 10 µM [1]: 20%
growth, % of control at 10 µM (SF-539): 33%
growth, % of control at 10 µM (UO-31): 48%
growth, % of control at 10 µM (KM12): -4%
growth, % of control at 10 µM (786-0): 17%
growth, % of control at 10 µM (MDA-MB-231): 38%
growth, % of control at 10 µM (OVCAR-5): 69%
growth, % of control at 10 µM (UACC-62): 42%
growth, % of control at 10 µM (M14): 33%
growth, % of control at 10 µM (SK-OV-3): 78%
growth, % of control at 10 µM (NCI-H460): -7%
growth, % of control at 10 µM (EKVX): 23%
growth, % of control at 10 µM (HCT-15): 21%
growth, % of control at 10 µM (NCI-H226): 49%
growth, % of control at 10 µM (CCRF-CEM): 43%
growth, % of control at 10 µM [2]: 61%
growth, % of control at 10 µM (PC-3): 8%
growth, % of control at 10 µM (NCI-H322M): 87%
growth, % of control at 10 µM (SW-620): 36%
growth, % of control at 10 µM (IGROV-1): 53%
growth, % of control at 10 µM (NCI-H522): 46%
growth, % of control at 10 µM (TK-10): 34%
growth, % of control at 10 µM (K562): 34%
growth, % of control at 10 µM (A549): 23%
growth, % of control at 10 µM (NCI-H23): 36%
growth, % of control at 10 µM (BT-549): 40%
